Data taken from ChEMBL document CHEMBL5550215, “Discovery of Novel Imidazo[1,2-a]pyridine-Based HDAC6 Inhibitors as an Anticarcinogen with a Cardioprotective Effect” (J Med Chem, 2024).
Calls of active or inactive are those of the source. No cut-off for these calls is given here.

Columns and labels:
Mus musculus = test: Cardioprotective activity against myocardial ischemia/reperfusion induced C57BL/6J mouse model assessed as reduction in ST-segment elevation at 2.5 to 10 mg/kg; type: functional, organism-based; details: dose 2.5-10 mg/kg
[1] = Cmax in male Sprague-Dawley rat at 7 mg/kg,po measured upto 8 hrs by UPLC-MS/MS analysis; type: ADME, organism-based; details: in vivo

O=C(NO)c1ccc(CNC(=O)c2cc(-c3ccc(F)cc3)cn3ccnc23)cc1
Activity (Mus musculus): Active
Cmax [1]: 27.5 ng/mL
